# Assay results reported in ChEMBL document CHEMBL1201862, “PubChem BioAssay data set” (2004).
# Calls of active or inactive are those of the source.
# Columns and labels:
# [1] = target: T1, Acyl-homoserine lactone acylase PvdQ (Pseudomonas aeruginosa (strain LESB58), UniProt Q9I194); assay: PvdQ acylase enzyme activity blockers – biochemical, fluorescence, plate reader and imaging, cherry-picks, dose response (AID 493231)
# T1 sequence (Q9I194 whole entry): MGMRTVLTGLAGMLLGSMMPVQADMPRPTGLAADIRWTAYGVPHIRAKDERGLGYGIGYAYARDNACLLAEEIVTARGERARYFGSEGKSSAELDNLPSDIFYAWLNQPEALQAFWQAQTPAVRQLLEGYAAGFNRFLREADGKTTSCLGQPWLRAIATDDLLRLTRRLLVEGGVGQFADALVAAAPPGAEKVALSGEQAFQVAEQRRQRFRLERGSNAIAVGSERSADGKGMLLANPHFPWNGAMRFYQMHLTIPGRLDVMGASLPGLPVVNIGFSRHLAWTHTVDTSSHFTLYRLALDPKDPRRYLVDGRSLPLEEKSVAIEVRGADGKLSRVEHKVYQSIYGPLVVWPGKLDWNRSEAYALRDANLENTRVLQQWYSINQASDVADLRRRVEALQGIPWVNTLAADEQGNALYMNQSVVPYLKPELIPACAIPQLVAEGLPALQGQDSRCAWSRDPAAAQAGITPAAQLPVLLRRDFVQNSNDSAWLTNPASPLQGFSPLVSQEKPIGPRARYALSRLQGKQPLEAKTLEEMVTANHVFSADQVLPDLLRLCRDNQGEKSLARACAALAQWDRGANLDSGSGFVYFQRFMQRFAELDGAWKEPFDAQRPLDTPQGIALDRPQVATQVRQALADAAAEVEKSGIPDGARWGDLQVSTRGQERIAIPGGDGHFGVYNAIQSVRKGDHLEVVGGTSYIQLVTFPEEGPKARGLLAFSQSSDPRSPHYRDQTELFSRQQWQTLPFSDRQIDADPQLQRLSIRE
# [2] = target: T2, Eukaryotic translation initiation factor 2-alpha kinase 3 (Homo sapiens, UniProt Q9NZJ5); assay: Dose response cell-based high-throughput screening assay to measure PERK inhibition. [Related pubchem assays: 1416 ]; assay type: functional
# T2 sequence (Q9NZJ5 whole entry): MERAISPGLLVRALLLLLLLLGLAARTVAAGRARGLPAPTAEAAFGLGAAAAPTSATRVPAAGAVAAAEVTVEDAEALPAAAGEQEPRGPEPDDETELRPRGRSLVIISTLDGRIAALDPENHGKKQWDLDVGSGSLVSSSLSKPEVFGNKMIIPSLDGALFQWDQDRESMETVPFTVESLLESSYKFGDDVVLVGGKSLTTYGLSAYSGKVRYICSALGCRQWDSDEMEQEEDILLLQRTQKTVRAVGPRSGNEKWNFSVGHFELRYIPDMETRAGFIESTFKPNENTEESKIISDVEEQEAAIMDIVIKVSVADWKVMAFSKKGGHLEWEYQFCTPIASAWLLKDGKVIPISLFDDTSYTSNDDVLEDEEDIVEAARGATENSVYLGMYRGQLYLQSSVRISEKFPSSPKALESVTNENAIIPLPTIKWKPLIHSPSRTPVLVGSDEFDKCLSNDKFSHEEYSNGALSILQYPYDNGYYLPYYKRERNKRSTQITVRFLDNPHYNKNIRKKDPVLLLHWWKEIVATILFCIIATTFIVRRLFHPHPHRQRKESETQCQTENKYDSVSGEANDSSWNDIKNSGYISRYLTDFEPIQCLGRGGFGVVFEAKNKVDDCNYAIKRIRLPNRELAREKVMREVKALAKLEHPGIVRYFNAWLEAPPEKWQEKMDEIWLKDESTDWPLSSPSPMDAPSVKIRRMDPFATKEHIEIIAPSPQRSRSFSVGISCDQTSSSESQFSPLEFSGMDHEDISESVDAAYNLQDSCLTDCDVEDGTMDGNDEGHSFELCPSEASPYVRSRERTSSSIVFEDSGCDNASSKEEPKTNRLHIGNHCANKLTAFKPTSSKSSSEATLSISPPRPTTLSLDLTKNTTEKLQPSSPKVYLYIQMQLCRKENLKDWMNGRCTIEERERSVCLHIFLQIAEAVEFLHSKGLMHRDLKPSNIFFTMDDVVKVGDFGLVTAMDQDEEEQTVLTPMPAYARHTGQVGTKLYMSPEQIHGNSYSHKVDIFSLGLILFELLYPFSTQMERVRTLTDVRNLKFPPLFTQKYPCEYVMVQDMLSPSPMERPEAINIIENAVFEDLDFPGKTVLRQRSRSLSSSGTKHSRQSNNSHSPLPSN
# [3] = target: T2, Eukaryotic translation initiation factor 2-alpha kinase 3; assay: Counterscreen assay for PERK inhibitors: Dose response cell-based high throughput screening assay to measure inhibition of PERK at 6 hours. [Related pubchem assays: 1522, 1416 ]; assay type: functional
# [4] = target: T3, Ubiquitin-conjugating enzyme E2 N (Homo sapiens, UniProt P61088); assay type: functional
# T3 sequence (P61088 whole entry): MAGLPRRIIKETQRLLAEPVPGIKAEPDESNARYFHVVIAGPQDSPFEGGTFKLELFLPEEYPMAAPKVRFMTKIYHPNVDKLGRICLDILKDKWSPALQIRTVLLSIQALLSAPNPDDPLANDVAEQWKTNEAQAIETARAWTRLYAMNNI
# Bcl-2-related protein A1 = target: T4, Bcl-2-related protein A1 (Mus musculus, UniProt Q07440); assay type: functional;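 also: confirmatory dose–response counterscreen on Bfl-1, used to check hits from a UBC13 polyubiquitin inhibitor campaign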
# T4 sequence (Q07440 whole entry): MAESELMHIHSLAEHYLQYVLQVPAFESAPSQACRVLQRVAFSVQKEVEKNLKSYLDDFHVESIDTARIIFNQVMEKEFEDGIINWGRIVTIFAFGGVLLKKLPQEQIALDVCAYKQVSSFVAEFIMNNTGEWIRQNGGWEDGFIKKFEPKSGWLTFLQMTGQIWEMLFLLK
# [5] = target: T3, Ubiquitin-conjugating enzyme E2 N; assay type: functional; remark: listed apart in the source
# [6] = target: DNA dC->dU-editing enzyme APOBEC-3G (Homo sapiens, UniProt Q9HC16); assay: Dose Response confirmation of small molecule APOBEC3G DNA Deaminase Inhibitors via a fluorescence-based single-stranded DNA deaminase assay. [Related pubchem assays (depositor defined):AID493012, AID493028]; assay type: functional
# Sequence of DNA dC->dU-editing enzyme APOBEC-3G (Q9HC16 whole entry): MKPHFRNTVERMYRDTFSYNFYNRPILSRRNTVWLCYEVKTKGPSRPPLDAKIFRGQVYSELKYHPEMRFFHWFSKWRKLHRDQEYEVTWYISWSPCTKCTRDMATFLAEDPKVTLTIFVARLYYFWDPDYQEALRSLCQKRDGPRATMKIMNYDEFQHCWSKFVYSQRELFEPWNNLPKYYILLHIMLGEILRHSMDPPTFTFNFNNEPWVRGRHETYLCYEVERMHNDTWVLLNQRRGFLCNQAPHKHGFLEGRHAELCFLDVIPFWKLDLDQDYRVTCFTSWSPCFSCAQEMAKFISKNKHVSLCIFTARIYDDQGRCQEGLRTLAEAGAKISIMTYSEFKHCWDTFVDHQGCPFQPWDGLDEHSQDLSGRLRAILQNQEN
# Cytochrome P450 2C19 = Cytochrome P450 2C19 (Homo sapiens, UniProt P33261); assay: Cytochrome panel assay with activity outcomes. Panel member name: p450-cyp2c19 Compounds with AC50 equal or less than 10 uM are considered active; assay type: functional
# Genome polyprotein = Genome polyprotein (dengue virus type 2, UniProt P29990); assay: flavivirus cap methylation enzyme inhibition – biochemical, confirmation dose response, primary screen (AID 588689); assay type: functional
# Sequence of Genome polyprotein (P29990 2492-3391 limits assumed): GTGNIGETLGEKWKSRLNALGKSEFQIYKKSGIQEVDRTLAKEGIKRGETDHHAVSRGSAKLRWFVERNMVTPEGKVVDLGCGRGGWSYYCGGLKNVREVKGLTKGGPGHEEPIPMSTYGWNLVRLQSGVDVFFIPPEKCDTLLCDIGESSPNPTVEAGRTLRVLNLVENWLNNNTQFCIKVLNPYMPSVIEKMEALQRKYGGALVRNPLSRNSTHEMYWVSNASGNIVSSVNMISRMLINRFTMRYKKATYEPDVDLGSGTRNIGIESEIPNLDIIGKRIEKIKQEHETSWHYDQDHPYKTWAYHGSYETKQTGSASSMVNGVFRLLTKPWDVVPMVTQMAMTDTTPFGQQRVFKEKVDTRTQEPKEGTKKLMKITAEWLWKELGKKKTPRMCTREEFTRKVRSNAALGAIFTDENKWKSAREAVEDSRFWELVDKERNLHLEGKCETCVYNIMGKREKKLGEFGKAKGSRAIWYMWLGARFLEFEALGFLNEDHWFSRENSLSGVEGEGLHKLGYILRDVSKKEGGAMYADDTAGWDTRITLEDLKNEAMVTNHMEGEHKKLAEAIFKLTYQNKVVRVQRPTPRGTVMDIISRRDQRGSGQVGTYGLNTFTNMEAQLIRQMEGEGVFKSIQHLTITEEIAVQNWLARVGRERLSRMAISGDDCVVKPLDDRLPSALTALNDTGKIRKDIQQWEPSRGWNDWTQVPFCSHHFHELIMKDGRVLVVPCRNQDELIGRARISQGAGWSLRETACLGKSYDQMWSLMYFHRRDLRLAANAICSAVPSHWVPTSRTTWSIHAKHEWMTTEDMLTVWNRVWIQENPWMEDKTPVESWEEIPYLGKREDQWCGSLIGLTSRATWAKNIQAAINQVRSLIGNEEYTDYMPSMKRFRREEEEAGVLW
# [7] = target: T5, Replicative DNA helicase DnaB (Mycobacterium tuberculosis, UniProt P9WMR3); assay: DnaB intein splicing inhibitors, dose response, biochemical, cell-free fluorescence (AID 449749); assay type: functional
# T5 sequence (P9WMR3 whole entry): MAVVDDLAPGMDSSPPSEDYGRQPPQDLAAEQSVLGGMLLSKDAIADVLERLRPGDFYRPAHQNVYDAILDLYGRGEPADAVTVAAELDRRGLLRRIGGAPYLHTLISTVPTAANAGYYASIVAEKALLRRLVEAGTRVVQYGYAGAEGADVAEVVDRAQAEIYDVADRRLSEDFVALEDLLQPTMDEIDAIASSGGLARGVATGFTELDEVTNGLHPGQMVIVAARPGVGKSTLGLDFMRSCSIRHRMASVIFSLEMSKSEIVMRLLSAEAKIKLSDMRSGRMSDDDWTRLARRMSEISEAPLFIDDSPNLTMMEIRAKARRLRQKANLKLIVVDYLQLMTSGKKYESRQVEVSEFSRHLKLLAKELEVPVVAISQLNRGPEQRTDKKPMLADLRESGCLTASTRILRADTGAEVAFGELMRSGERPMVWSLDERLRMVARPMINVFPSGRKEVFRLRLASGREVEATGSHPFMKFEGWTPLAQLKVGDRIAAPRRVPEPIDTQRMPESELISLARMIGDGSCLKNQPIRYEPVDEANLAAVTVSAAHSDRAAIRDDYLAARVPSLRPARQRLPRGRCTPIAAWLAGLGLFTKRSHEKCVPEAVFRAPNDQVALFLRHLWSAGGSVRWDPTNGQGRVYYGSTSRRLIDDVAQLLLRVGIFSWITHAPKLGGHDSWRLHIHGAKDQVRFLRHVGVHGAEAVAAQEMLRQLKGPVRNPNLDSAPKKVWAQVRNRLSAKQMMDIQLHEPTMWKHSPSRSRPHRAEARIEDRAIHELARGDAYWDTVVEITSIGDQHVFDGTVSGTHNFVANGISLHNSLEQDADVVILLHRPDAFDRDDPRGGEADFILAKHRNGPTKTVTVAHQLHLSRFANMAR
# [8] = A cytotoxicity screen of small molecule inhibitors of the PhoP region in Salmonella typhi identified in the primary screen. [Related pubchem assays: 1850, 1864, 1985 ]; assay type: functional
# Protein RecA = target: T6, Protein RecA (Mycobacterium tuberculosis, UniProt P9WHJ3); assay: Fluorescence Cell-Free Homogeneous Dose Retest to Identify Inhibitors of RecA-Intein Splicing Activity. [Related pubchem assays (depositor defined):AID2097, AID2223, AID489010, AID492950]; assay type: functional
# T6 sequence (P9WHJ3 whole entry): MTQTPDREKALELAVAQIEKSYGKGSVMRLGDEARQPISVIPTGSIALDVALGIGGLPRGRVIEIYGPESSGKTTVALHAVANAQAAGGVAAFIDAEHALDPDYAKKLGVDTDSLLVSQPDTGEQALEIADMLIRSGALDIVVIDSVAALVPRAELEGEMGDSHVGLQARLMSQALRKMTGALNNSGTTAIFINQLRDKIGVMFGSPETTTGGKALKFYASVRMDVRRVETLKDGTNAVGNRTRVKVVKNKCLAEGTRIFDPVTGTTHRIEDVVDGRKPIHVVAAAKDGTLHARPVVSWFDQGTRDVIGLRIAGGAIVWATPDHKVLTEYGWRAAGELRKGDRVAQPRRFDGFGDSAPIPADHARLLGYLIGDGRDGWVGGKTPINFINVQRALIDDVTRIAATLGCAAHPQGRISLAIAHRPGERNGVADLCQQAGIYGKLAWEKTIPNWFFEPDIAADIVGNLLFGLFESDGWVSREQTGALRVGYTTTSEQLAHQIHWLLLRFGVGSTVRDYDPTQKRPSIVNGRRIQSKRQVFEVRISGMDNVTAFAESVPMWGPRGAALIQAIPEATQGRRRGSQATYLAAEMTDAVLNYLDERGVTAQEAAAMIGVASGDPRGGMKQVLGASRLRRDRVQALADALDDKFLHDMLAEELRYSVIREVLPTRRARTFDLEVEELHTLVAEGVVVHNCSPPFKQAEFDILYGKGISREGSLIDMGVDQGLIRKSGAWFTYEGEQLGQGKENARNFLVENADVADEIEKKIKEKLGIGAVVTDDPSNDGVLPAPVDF
# [9] = target: Neurotensin receptor type 1 (Homo sapiens, UniProt P30989); assay type: functional;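 also: Image-based confirmatory dose-response assay measuring agonist activity at NTR1; NTR1-expressing U2OS osteosarcoma cells imaged for beta-arrestin GFP spot formation; agonist potency where compounds increase beta-arrestin recruitment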
# [10] = target: T7, Voltage-gated N-type calcium channel alpha-1B subunit/Amyloid beta A4 precursor protein-binding family A member 1 (Homo sapiens, UniProt Q00975+Q02410); assay type: protein assay
# T7 sequence (Q00975 whole entry, the tested form may be a part): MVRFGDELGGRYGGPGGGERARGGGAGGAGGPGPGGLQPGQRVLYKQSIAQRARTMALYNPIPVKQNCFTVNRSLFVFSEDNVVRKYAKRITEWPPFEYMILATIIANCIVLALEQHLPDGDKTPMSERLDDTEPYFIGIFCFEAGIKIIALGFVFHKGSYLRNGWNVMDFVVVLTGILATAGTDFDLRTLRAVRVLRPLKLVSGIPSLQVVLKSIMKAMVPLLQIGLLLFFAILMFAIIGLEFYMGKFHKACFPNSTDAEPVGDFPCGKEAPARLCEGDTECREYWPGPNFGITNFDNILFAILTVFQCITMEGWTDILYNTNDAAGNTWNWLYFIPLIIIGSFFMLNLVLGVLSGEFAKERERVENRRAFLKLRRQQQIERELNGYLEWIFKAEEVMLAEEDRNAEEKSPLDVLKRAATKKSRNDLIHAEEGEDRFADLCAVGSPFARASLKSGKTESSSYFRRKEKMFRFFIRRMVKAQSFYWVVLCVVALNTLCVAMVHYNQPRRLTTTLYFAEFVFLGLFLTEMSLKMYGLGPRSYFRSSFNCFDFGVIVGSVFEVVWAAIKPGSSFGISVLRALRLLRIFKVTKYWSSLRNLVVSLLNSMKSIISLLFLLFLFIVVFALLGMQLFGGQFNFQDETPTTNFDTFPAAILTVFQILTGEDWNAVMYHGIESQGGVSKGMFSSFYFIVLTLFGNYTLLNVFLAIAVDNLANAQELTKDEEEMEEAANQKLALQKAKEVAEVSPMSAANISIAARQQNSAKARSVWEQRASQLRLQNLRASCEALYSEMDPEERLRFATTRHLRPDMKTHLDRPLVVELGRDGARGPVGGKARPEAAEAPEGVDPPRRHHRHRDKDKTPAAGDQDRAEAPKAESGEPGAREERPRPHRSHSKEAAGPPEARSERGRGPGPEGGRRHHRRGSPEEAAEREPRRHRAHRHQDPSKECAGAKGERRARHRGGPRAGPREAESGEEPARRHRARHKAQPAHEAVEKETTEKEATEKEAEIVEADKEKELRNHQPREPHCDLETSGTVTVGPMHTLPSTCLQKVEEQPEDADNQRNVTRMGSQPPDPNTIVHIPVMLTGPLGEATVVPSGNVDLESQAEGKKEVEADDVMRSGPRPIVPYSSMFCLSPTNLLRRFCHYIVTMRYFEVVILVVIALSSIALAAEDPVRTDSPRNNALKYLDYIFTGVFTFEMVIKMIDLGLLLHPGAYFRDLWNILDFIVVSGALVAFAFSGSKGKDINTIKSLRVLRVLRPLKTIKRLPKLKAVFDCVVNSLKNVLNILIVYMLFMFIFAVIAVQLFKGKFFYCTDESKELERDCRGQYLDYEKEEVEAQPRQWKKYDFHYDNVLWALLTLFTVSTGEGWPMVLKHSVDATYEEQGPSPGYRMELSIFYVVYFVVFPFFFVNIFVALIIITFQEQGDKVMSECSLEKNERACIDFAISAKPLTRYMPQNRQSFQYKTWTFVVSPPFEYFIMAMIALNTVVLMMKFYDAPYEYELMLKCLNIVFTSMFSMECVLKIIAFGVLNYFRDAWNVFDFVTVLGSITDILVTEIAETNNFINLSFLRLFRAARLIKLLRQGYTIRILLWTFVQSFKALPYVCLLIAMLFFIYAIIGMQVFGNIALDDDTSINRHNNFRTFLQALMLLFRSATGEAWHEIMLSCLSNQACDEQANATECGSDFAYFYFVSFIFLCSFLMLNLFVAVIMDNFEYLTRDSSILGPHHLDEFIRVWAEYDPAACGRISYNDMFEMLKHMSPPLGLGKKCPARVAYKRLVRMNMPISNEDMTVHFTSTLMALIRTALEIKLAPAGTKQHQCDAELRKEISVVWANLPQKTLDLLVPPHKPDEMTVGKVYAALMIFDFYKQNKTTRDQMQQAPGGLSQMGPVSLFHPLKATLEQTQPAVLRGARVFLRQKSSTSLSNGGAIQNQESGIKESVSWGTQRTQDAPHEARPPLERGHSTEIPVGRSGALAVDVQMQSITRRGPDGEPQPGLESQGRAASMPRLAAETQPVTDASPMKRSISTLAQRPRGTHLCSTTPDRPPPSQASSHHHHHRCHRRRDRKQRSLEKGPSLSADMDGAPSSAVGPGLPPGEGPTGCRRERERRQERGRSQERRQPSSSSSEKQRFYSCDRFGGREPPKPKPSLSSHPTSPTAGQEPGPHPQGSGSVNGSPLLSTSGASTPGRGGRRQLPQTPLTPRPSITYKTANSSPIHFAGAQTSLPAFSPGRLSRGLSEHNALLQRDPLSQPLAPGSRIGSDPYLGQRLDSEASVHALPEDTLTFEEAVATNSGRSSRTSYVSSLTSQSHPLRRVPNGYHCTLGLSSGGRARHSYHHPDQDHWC
# T7 sequence (Q02410 whole entry, the tested form may be a part): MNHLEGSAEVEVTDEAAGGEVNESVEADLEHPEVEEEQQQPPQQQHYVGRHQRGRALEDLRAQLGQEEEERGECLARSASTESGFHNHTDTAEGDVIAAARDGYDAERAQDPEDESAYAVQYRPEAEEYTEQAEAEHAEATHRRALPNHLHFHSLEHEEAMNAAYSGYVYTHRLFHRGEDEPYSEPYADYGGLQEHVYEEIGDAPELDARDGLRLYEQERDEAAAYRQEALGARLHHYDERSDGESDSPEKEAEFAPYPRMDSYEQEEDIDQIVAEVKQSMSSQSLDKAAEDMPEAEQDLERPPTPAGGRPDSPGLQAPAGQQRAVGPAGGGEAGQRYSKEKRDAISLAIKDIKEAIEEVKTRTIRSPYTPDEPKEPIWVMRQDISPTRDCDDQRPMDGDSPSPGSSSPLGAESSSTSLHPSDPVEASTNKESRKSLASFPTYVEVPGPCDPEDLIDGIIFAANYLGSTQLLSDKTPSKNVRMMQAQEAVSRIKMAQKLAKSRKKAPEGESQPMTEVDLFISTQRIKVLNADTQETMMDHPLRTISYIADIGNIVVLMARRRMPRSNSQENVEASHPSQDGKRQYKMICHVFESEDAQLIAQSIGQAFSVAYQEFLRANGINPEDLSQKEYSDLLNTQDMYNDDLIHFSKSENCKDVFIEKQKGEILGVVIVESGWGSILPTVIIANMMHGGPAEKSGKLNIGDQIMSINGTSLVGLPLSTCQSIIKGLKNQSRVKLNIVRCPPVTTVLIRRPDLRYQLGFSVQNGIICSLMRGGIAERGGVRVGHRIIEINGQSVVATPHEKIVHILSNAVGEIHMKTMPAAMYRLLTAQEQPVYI
# [11] = target: T8, Carboxy-terminal domain RNA polymerase II polypeptide A small phosphatase 1 (Homo sapiens, UniProt Q9GZU7); assay: CTDSP1 inhibitors, concentration-response, biochemical, absorbance readout, ultra-high-throughput screen actives (AID 540297); assay type: functional
# T8 sequence (Q9GZU7 whole entry): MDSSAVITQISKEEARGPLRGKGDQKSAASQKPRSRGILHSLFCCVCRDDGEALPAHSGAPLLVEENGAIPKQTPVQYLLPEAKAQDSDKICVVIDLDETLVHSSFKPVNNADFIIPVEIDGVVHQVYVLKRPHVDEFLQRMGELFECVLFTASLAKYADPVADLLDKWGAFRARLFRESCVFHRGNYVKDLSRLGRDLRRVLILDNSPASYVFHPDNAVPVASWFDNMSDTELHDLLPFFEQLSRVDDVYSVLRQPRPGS
# [12] = target: Eukaryotic translation initiation factor 4E (Mus musculus, UniProt P63073); assay: blockers of eIF4G binding by eIF4E – biochemical, TR-FRET, dose response (AID 855); assay type: functional;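 also: potency for disrupting eIF4E binding to eIF4GI seen as loss of FRET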
# Sequence of Eukaryotic translation initiation factor 4E (P63073 whole entry): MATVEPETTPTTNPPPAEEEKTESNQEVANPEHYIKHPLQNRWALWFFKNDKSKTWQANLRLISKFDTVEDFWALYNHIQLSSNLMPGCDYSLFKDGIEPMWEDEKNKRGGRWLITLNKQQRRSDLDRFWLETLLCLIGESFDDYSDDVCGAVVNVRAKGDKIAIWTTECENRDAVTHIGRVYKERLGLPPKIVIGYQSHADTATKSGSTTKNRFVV
# [13] = target: Induced myeloid leukemia cell differentiation protein Mcl-1 (Homo sapiens, UniProt Q07820); assay type: functional
# Sequence of Induced myeloid leukemia cell differentiation protein Mcl-1 (Q07820 whole entry): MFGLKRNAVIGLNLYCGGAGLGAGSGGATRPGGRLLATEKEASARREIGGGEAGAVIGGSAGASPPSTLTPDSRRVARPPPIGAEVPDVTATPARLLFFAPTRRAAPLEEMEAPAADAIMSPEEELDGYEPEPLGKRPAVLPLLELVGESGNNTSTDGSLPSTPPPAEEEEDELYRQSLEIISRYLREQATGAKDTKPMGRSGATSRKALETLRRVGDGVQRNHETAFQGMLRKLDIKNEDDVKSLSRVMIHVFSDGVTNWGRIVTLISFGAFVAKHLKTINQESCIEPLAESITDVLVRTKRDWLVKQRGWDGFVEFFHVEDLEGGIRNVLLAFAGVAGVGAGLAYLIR
# [14] = target: T7, Voltage-gated N-type calcium channel alpha-1B subunit/Amyloid beta A4 precursor protein-binding family A member 1; assay type: protein assay; remark: listed apart in the source
smiles,measurement,setting,value
N#CN(Cc1ccccc1)Cc1ccccc1,AC50,[1],1.6 µM (active)
CC(C)N(C(=O)/C=C/c1cccc([N+](=O)[O-])c1)C(C)C,EC50,[2],> 55.7 µM (not active)
same,EC50,[3],> 55.7 µM (not active)
Cc1ccc(S(=O)(=O)NCCC(C)C)cc1[N+](=O)[O-],AC50,[1],12.5 µM (active)
CCOC(=O)c1cc(-c2ccc(OC)cc2)nc2c1c(C)nn2CCC#N,IC50,[4],15 µM (active)
same,IC50,Bcl-2-related protein A1,> 20 µM (inactive)
same,IC50,[5],6.8 µM (active)
Cc1cc(NC(=O)c2cc([N+](=O)[O-])cc([N+](=O)[O-])c2C)no1,AC50,[1],3.11 µM (active)
CCOc1ccc(-c2nc(S(=O)(=O)c3ccccc3)c(NC)o2)cc1,IC50,[4],19 µM (active)
same,IC50,Bcl-2-related protein A1,> 20 µM (inactive)
same,IC50,[5],> 20 µM (inactive)
Sc1nnc(-c2ccco2)n1/N=C/c1ccccn1,IC50,[6],9.12 µM (active)
COc1cccc(C(c2c(C)[nH]n(-c3ccccc3)c2=O)c2c(C)[nH]n(-c3ccccc3)c2=O)c1O,AC50,Cytochrome P450 2C19,inconclusive
same,IC50,Genome polyprotein,38.8 µM (active)
same,AC50,[7],1.18 µM (active)
same,EC50,[8],> 50 µM (active)
same,EC50,Protein RecA,0.829 µM (active)
O=C(NC(=S)Nc1ccc2oc(=O)ccc2c1)c1ccccc1F,EC50,[2],> 55.7 µM (not active)
same,EC50,[3],> 55.7 µM (not active)
COc1cc2c(cc1OC)C(SC)=NC(C)(C)C2,EC50,[9],9.39 µM (active)
CC(=O)c1ccc(NC(=O)CSc2ccsc2[N+](=O)[O-])cc1,IC50,[10],6 µM (active)
same,IC50,[11],3.83 µM (active)
same,IC50,[12],50 µM (inactive)
same,IC50,[13],< 0.4 µM (not active)
same,IC50,[14],48.2 µM (active)
NC1=NC(=Nc2cccc(S(N)(=O)=O)c2)c2ccccc21,EC50,[2],> 55.7 µM (not active)
same,EC50,[3],> 55.7 µM (not active)
